In EPA's ToxValDB 9.5 (doi:10.2903/j.efsa.2009.192r):
Values after ≈ are worked out from the molar mass of the structure shown.

Key:
Anas platyrhynchos = conditions: for LD50: oral, mortality
Apis mellifera = conditions: acute; duration: 48 hours; dermal; mortality
Canidae = conditions: oral, Dog Other, clinical signs
Colinus virginianus = conditions: acute, oral, mortality
Daphnia magna = conditions: chronic/long-term; duration: 21 days; reproduction
Folsomia candida = conditions: chronic/long-term; duration: 28 days

Compound: CCc1nn(C)c(C(=O)NCc2ccc(C(C)(C)C)cc2)c1Cl [Tebufenpyrad]
- LD50 (Anas platyrhynchos; acute, unspecified): > 2000 mg/kg-day
- NOEL (Anas platyrhynchos; reproductive): 6.6 mg/kg-day
- LD50 (Anas platyrhynchos; short-term, feed): > 75 mg/kg-day
- LD50 (Apis mellifera): > 6.7 µg/piece
- NOAEL (Canidae; chronic, duration: 1 years): 2 mg/kg-day
- NOAEL (Canidae; subchronic, duration: 90 days): 2 mg/kg-day
- LD50 (Colinus virginianus; diet): > 439 mg/kg-day
- LD50 (Colinus virginianus): > 2000 mg/kg-day
- NOEC (Daphnia magna): 0.0024 mg/L
- NOEC (Folsomia candida): 9.38 g/ha
- LC50 (Oncorhynchus mykiss; acute, duration: 96 hours, mortality): 0.03 µg/mL (≈ 0.0899 µM)
- NOEC (Oncorhynchus mykiss; chronic/long-term, duration: 94 days): 0.00245 mg/L
- LD50 (Rattus norvegicus; acute, oral, M/F, Fischer 344, mortality): 320 mg/kg-day
- NOEL (Rattus norvegicus; chronic, body weight): 8.4 mg/kg-day
- NOAEL (Rattus norvegicus; chronic, duration: 2 years, oral, diet, organ weight): 0.8 mg/kg-day
- NOAEL (Rattus norvegicus; reproduction developmental, reproduction): 15.3 mg/kg-day
- NOAEL (Rattus norvegicus; subchronic, duration: 90 days, oral, organ weight): 0.7 mg/kg-day
- LC50 (Tagia sp.; acute, duration: 14 days, mortality): 41 mg/kg
- NOEC (Tagia sp.; chronic/long-term): 0.66 mg/kg
